One test concerns HOS. Description: In vitro cytotoxic activity, Calcein AM assay, HOS. Format: cell-based. The settings on record: 72 hours.
Test [1] deals with Amaranthus caudatus cotyledon/hypocotyl explants. Briefly: Amaranthus bioassay (betacyanin content). The format is in vivo. The following applies: for Concentration with highest activity: 48 h dark; for Activity (%) [10^−5 mol · l^−1 BAP = 100%]: at concentration with highest activity. How it is done: Standard Amaranthus bioassay was performed with several modifications. The seeds of Amaranthus caudatus var. atropurpurea were surface-sterilised in 10% N-chlorobenzenesulfonamide (w/v) for 10 min and washed 5 times in deionized water. They were placed in 15 cm Petri dishes containing paper tissues saturated with deionized water. After 72 h of cultivation at 25° C. in darkness, the roots of the seedlings were cut off. The explants, consisting of two cotyledons and hypocotyls, were placed in 5 cm Petri dishes on two layers of filter paper soaked in 1 ml of incubation medium containing 10 μmol NA2HPO4-KH2PO4, pH 6.8, 5 μmol tyrosine and the cytokinin to be tested. There were 20 explants per dish. The procedure was carried out under a green safe light in a darkroom. After a 48 h of incubation at 25° C. in darkness, betacyanin was extracted by freezing the explants in 4 ml […] acetic acid. The concentration of betacyanin was determined by comparing the absorbance at 537 nm and 620 nm as follows: ΔA=[…]-[…]. From the obtained data, the concentration with highest activity was selected for each compound tested. Relative activity of the compound at this concentration was calculated (Tab. 12). […] The values shown in table 8 are means of five replicates and the entire test was repeated twice. The cytokinins to be tested were dissolved in dimethylsulfoxide (DMSO) and the solution brought up to 10^-3M with distilled water. This stock was further diluted in the respective media used for the biotest to concentrations ranging from 10^-8M to 10^-4M. […] From the data obtained (FIG. 14) the maximum effective concentration of the tested compound was calculated as well as its relative effectiveness at this concentration (Table 12). […]

The test system of the next test is mouse fibroblasts NIH3T3. Briefly: In vitro cytotoxic activity, Calcein AM assay, NIH-3T3. The following applies: 72 hours, read-out: IC 50 NIH-3T3. The format is cell-based. An excerpt:
(§1) One of the parameters used, as the basis for cytotoxicity assays, is the metabolic activity of viable cells. For example, a microtiter assay, which uses the Calcein AM, is now widely used to quantitate cell proliferation and cytotoxicity. For instance, this assay is used in drug screening programs and in chemosensitivity testing. Because only metabolically active cells cleave Calcein AM, these assays detect viable cells exclusively. The quantity of reduced Calcein AM corresponds to the number of vital cells in the culture.
(§2) Human T-lymphoblastic leukemia cell line CEM; promyelocytic HL-60 and monocytic U937 leukemias; breast carcinoma cell lines MCF-7; cervical carcinoma cells HELA; mouse fibroblasts NIH3T3; human erythroleukaemia K562 and human malignant melanoma cells G361 were used for routine screening of compounds. The cells were maintained in Nunc/Corning 80 cm^2 plastic tissue culture flasks and cultured in cell culture medium (DMEM with 5 g/l glucose, 2 mM glutamine, 100 U/ml penicillin, 100 μg/ml streptomycin, 10% fetal calf serum and sodium bicarbonate).
(§3) The cell suspensions that were prepared and diluted according to the particular cell type and the expected target cell density (10^4 cells per well based on cell growth characteristics) were added by pipette (80 μl) into 96/well microtiter plates. Inoculates were allowed a pre-incubation period of 24 hours at 37° C. and 5% CO2 for stabilisation. Four-fold dilutions of the intended test concentration were added at time zero in 20 μl aliquots to the microtiter plate wells. Usually, test compound was evaluated at six 4-fold dilutions. In routine testing, the highest well concentration was 166.7 μM, but it can be the matter of change dependent on the agent. All drug concentrations were examined in duplicates. Incubations of cells with the test compounds lasted for 72 hours at 37° C., in 5% CO2 atmosphere and 100% humidity. At the end of incubation period, the cells were assayed by using the Calcein AM. Ten microliters of the stock solution were pipetted into each well and incubated further for 1 hours. Fluorescence (FD) was measured with the Labsystem FIA Reader Fluoroscan Ascent (UK). The tumour cell survival (GI50) was calculated using the following equitation: GI50=(FDdrug exposed well/mean FDcontrol wells)×100%. The GI50 value, the drug concentration lethal to 50% of the tumour cells, was calculated from the obtained dose response curves (FIG. 3).

In test [2] the test system is breast carcinoma cell lines MCF-7. Description: In vitro cytotoxic activity, Calcein AM assay, MCF7. The format is cell-based, human. The following applies: 72 hours, read-out: IC 50 MCF7.
Text: as §1, §2, §3

A further test has as its system promyelocytic HL-60. Description: In vitro cytotoxic activity, Calcein AM assay, HL60. The format is cell-based, human. The settings on record: 72 hours, read-out: IC 50 HL60.
Text: as §1, §2, §3

The test system of test [3] is human erythroleukaemia K562. Briefly: In vitro cytotoxic activity, Calcein AM assay, K-562. Format: cell-based. The settings on record: 72 hours, read-out: IC 50 K-562.
Text: as §1, §2, §3

Test [4] has as its system Human T-lymphoblastic leukemia cell line CEM. Briefly: In vitro cytotoxic activity, Calcein AM assay, CEM. Format: cell-based. The following applies: 72 hours.
Text: as §1, §2, §3

Turning to `COc1ccc(CNc2ncnc3c2ncn3[C@@H]2O[C@H](CO)[C@@H](O)[C@H]2O)c(OC)c1` [2,4-dimethoxybenzylamino, 6-(2,4-dimethoxybenzylamino)purine riboside], the IC50 is greater than 167 µM in the test on HOS; greater than 167 µM with mouse fibroblasts NIH3T3; greater than 167 µM in test [2]; 39 µM with promyelocytic HL-60; greater than 167 µM in test [3]; greater than 167 µM in test [4]. In test [1], the “Concentration with highest activity” value is listed as 10^−5 mol · l^−1. Further, the “Activity (%) [10^−5 mol · l^−1 BAP = 100%]” value (“Activity (%)” for short) in test [1] worked out at 3 ± 3%.

For the compound `COc1cc(CNc2ncnc3c2ncn3[C@@H]2O[C@H](CO)[C@@H](O)[C@H]2O)cc(OC)c1` [3,5-dimethoxyxybenzylamino, 6-(3,5-dimethoxybenzylamino)purine riboside], the IC50 was greater than 167 µM in the test with HOS; greater than 167 µM with mouse fibroblasts NIH3T3; greater than 167 µM in test [2]; 18.8 µM in the test on promyelocytic HL-60; greater than 167 µM in test [3].

Take `O=[N+]([O-])c1cccc(CNc2ncnc3c2ncn3[C@@H]2O[C@H](CO)[C@@H](O)[C@H]2O)c1` [3-nitrobenzylamino, 6-(3-nitrobenzylamino)purine riboside]: in test [1], the “Concentration with highest activity” value is 10^−4 mol · l^−1 and the “Activity (%)” value is 66 ± 7%.

On to `O=[N+]([O-])c1ccc(CNc2ncnc3c2ncn3[C@@H]2O[C@H](CO)[C@@H](O)[C@H]2O)cc1` [4-nitrobenzylamino, 6-(4-nitrobenzylamino)purine riboside], for which, in test [1], the “Concentration with highest activity” value is recorded as 10^−4 mol · l^−1 and the “Activity (%)” value is on record as 25 ± 3%.

`OCC1OC(n2cnc3c(NCc4ccccc4Cl)nc(Cl)nc32)C(O)C1O` (centres unmarked) [R2 = Cl, 2-chlorobenzylamino]: the IC50 in the test with HOS was greater than 167 µM; in the test with mouse fibroblasts NIH3T3, greater than 167 µM; in test [2], greater than 167 µM; in the test on promyelocytic HL-60, 1.2 µM; in test [3], 61 µM; in test [4], 8.5 µM.

On to `OCC1OC(n2cnc3c(NCc4ccccc4F)nc(Cl)nc32)C(O)C1O` (centres unmarked) [R2 = Cl, 2-fluorobenzylamino], for which the IC50 in the test with HOS was greater than 167 µM; in test [2], greater than 167 µM; in the test on promyelocytic HL-60, 2.5 µM; in test [3] it was 30 µM; in test [4] it was 4.2 µM.

As to `OC[C@H]1O[C@@H](n2cnc3c(NCc4cccc(Cl)c4)nc(Cl)nc32)[C@H](O)[C@@H]1O` [R2 = Cl, 3-chlorobenzylamino], the IC50 in the test on HOS was greater than 167 µM; in the test with mouse fibroblasts NIH3T3, greater than 167 µM; in test [2], greater than 167 µM; with promyelocytic HL-60, 0.6 µM; in test [3], 28 µM; in test [4], 1.1 µM.

In the case of `OCC1OC(n2cnc3c(NCc4ccc(Cl)cc4)nc(Cl)nc32)C(O)C1O` (centres unmarked) [R2 = Cl, 4-chlorobenzylamino], the IC50 in the test on HOS is greater than 167 µM; in the test with mouse fibroblasts NIH3T3 it was greater than 167 µM; in test [2], greater than 167 µM; in the test with promyelocytic HL-60, 5 µM; in test [3], 15 µM; in test [4] it was 5.8 µM.

Consider `OC[C@H]1O[C@@H](n2cnc3c(NCc4ccc(F)cc4)nc(Cl)nc32)[C@H](O)[C@@H]1O` [R2 = Cl, 4-fluorobenzylamino], for which the IC50 was 19 µM in the test on HOS; greater than 167 µM with mouse fibroblasts NIH3T3; 12 µM in test [2]; 0.7 µM in the test on promyelocytic HL-60; 5.8 µM in test [3]; 1.5 µM in test [4].

For `Nc1nc(NCc2ccccc2Cl)c2ncn(C3OC(CO)C(O)C3O)c2n1` (centres unmarked) [R2 = NH2,2-chlorobenzylamino], the IC50 in the test on HOS was greater than 167 µM; in the test on mouse fibroblasts NIH3T3 it was greater than 167 µM; in test [2], greater than 167 µM; in the test on promyelocytic HL-60, 10.3 µM; in test [3] it was 78 µM; in test [4], 24.7 µM.

Take `Nc1nc(NCc2ccccc2F)c2ncn([C@@H]3O[C@H](CO)[C@@H](O)[C@H]3O)c2n1` [R2 = NH2,2-fluorobenzylamino]: the IC50 with HOS is greater than 167 µM; in test [2], greater than 167 µM; with promyelocytic HL-60 it was 8.7 µM; in test [3], 45 µM; in test [4], 14.5 µM.

As for `Nc1nc(NCc2cccc(Cl)c2)c2ncn([C@@H]3O[C@H](CO)[C@@H](O)[C@H]3O)c2n1` [R2 = NH2,3-chlorobenzylamino], the IC50 in the test on HOS is greater than 167 µM; with mouse fibroblasts NIH3T3 it was greater than 167 µM; in test [2], greater than 167 µM; in the test with promyelocytic HL-60, 5.8 µM; in test [3] it was 43 µM; in test [4] it was 10.2 µM.

Consider `Nc1nc(NCc2ccc(F)cc2)c2ncn([C@@H]3O[C@H](CO)[C@@H](O)[C@H]3O)c2n1` [R2 = NH2,4-fluorobenzylamino], for which the IC50 with HOS is 43 µM; in the test on mouse fibroblasts NIH3T3 it was greater than 167 µM; in test [2], 25 µM; with promyelocytic HL-60 it was 2.9 µM; in test [3], 13 µM; in test [4], 12.1 µM.

Regarding `CSc1nc(NCc2ccccc2Cl)c2ncn([C@@H]3O[C@H](CO)[C@@H](O)[C@H]3O)c2n1` [R2 = SCH3,2-chlorobenzylamino], the IC50 in the test on HOS is greater than 167 µM; in the test on mouse fibroblasts NIH3T3, greater than 167 µM; in test [2] it was greater than 167 µM; with promyelocytic HL-60 it was 7.4 µM; in test [3], 78 µM; in test [4], 14.6 µM.

For the compound `CSc1nc(NCc2ccccc2F)c2ncn([C@@H]3O[C@H](CO)[C@@H](O)[C@H]3O)c2n1` [R2 = SCH3,2-fluorobenzylamino], the IC50 was greater than 167 µM in the test with HOS; greater than 167 µM in test [2]; 11.4 µM in the test with promyelocytic HL-60; 42 µM in test [3]; 9.7 µM in test [4].

Regarding `CSc1nc(NCc2cccc(Cl)c2)c2ncn([C@@H]3O[C@H](CO)[C@@H](O)[C@H]3O)c2n1` [R2 = SCH3,3-chlorobenzylamino], the IC50 is greater than 167 µM with HOS; greater than 167 µM in the test with mouse fibroblasts NIH3T3; greater than 167 µM in test [2]; 6.1 µM with promyelocytic HL-60; 35 µM in test [3]; 13.2 µM in test [4].

The values above are taken from patent US8119614B2, “Substitution derivatives of N6-benzyladenosine, methods of their preparation, their use for preparation of drugs, cosmetic preparations and growth regulators, pharmaceutical preparations, cosmetic preparations and growth regulators containing these compounds” (Ustav Experimentalni Botaniky Akademie Ved Ceske Republiky, priority 2002, dated 2012).
